Entries after “also recorded” stand apart in the source; their conditions may differ.
What was measured:
CCL2 (MCP-1) = experiment: qRT-PCR of NF-κB target gene CCL2 in TNF-α challenged cells; format: cell-based, human; conditions: 10 ng/ml TNF-α for 24 hours; listed as SH-11052 (2)
Description: Similarly, the mRNA expression of the pro-inflammatory molecules IL8, PTGS2 (COX2) and CCL2 (MCP-1), inducible by NF-κB, were analyzed in the presence of SH-11052 (2). Cells (10^5 per well) were seeded in a 6-well plate and incubated for 24 hours at 37° C. and 5% CO2. The cells were then starved in 0.1% serum-EBM-2 for 12 hours followed by incubation for an hour in the presence of different concentrations of SH-11052 (2). The cells were then challenged for 24 hours with 10 ng/ml TNF-α. Following incubation, cells were lysed and RNA was isolated using Trizol reagent (Life Technologies). cDNA was prepared from 80 ng total RNA using random primers and M-MuLV Reverse Transcriptase (New England Biolabs, Ipswich, Mass., USA). RT-PCR reactions were set up using the TaqMan Fast Gene Expression Assay Kit according to the manufacturer's instructions. FAM-labeled TaqMan probes for PTGS2 (Hs00153133_m1), CCL2 (Hs00234140_m1), IL8 (Hs00174103_m1), and control, TBP (Hs99999910_m1), genes were used to monitor the expression levels of these genes. The qRT-PCR plate was read in a ViiATM 7 qPCR system (Life Technologies) and the data were analyzed using the ΔΔCt method. The expression levels of genes were normalized to TBP gene expression and calibrated to the DMSO-treated, unstimulated sample.

[1] = test system: oxygen-induced retinopathy (OIR); experiment: Oxygen-induced retinopathy (OIR) mouse model, intravitreal injection; format: in vivo, C57BL/6 mice; conditions: single intravitreal dose, estimated 1 μM, injected P12, read P17; listed as SH-11037 (6c)
Description: Particularly, neonatal C57BL/6 mice (n=3-4 pups per group) were exposed to 75% oxygen from postnatal day 7 (P7) until P12 and brought to room air to cause ischemia and extensive neovessel formation at P17. The hyperoxia obliterates the normal retinal vasculature, prompting aberrant overgrowth including intravitreal vascular tufts, once returned to normoxia. Further, mice were injected with PBS alone (vehicle) or PBS containing SH-11037 (6c) to give the estimated intravitreal concentrations of 1.0 μM using a 33G needle, under isoflurane anesthesia at the time of return to room air on P12. At P17, the mice were euthanized, eyes fixed, and retinal wholemounts were prepared.
Wholemounts were stained with AlexaFluor488-isolectin B4 and imaged on a Zeiss LSM700 confocal microscope. Neovascular area, as a percentage of total retinal area, was calculated using ImageJ with the SWIFT_NV plugin.

SMILES | mRNA expression of CCL2 (MCP-1) (CCL2 (MCP-1)) | neovascular area / neovascularization in vivo [1]
COc1ccc(CC2COc3cc(OC)c(O)c(O)c3C2=O)cc1O (single isomer, unassigned) [Compound 2] | decreased the expression | 
COc1ccc(CC2COc3cc(OC)c(OC)c(OC)c3C2=O)cc1OC(=O)[C@H](Cc1ccccc1)NC(=O)OC(C)(C)C (stereo partly drawn) [Compound 6c, (2S)-2-methoxy-5-((5,6,7-trimethoxy-4-oxochroman-3-yl)methyl)phenyl 2-((tert-butoxycarbonyl)amino)-3-phenylpropanoate] |  | blocked neovascularization in vivo; also recorded: significantly decreased neovascular area

Source: patent US10738024B2, “Compounds for treatment of angiogenesis-mediated diseases” (Indiana University Research and Technology Corporation, priority 2013, dated 2020)
